Experimental data published in US4390629A, “Polypeptide degrading enzymes” (President and Fellows of Harvard College, priority 1981, dated 1983).
Read-outs that look alike come from different tables or passages of the source.

How the values were obtained:
[1] = system: Protease Ci; experiment: Inhibition and stimulation of protease Ci insulin-degrading activity; type: biochemical, E. coli
[2] = molecular target: T1, La (Escherichia coli, UniProt P0A9M0)
[3] = molecular target: T1, La; experiment: biochemical; details: read-out: stimulation of globin-degrading activity in peak IV
[4] = system: Protease So; type: biochemical, E. coli
[5] = molecular target: T2, Protease Re (Escherichia coli, UniProt P23865); experiment: Sensitivity of protease Re proteolytic activity (casein) to inhibitors; type: biochemical, E. coli
T2 sequence (P23865 23-682): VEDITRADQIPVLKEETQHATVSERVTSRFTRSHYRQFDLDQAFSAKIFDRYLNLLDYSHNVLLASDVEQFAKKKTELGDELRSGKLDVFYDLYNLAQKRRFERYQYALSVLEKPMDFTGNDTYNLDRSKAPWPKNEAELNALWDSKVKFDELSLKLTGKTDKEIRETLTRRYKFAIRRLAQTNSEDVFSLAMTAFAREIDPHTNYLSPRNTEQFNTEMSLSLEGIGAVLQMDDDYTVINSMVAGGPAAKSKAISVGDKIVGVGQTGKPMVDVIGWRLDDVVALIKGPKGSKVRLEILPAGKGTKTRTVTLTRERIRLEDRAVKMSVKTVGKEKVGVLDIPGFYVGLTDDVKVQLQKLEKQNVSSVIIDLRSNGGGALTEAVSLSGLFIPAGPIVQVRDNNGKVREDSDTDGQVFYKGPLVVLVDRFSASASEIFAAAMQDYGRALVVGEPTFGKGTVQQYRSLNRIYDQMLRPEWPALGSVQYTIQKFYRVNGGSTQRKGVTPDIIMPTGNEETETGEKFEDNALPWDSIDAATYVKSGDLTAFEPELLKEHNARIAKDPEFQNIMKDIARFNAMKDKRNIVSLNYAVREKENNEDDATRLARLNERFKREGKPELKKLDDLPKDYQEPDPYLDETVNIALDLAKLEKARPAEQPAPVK

[6] = system: Fa; type: biochemical, E. coli
[7] = system: Mi; type: biochemical, E. coli
[8] = system: [^3 H] casein; experiment: Degradation of [3H] casein to acid-soluble products; type: biochemical, bovine
[9] = system: [^14 C] globin; experiment: Degradation of [14C] globin to acid-soluble products; type: biochemical, beef

Molecule: [Mn+2] [Mn^++]
- stimulation of protease Ci activity by divalent cations [1]: markedly stimulated

Molecule: [Co+2] [Co^++]
- stimulation of protease Ci activity by divalent cations [1]: markedly stimulated

Molecule: bacitracin
- inhibition of protease Ci activity by antibiotics [1]: strongly inhibit

Molecule: O=C(O)CN(CCOCCOCCN(CC(=O)O)CC(=O)O)CC(=O)O [EGTA]
- inhibition of protease Ci activity [1]: not

Molecule: Nc1ccn([C@@H]2O[C@H](COP(=O)(O)OP(=O)(O)OP(=O)(O)O)[C@@H](O)[C@H]2O)c(=O)n1 [CTP]
- stimulation of La proteolysis by nucleotides (in words) [2]: stimulate but less effectively

Molecule: O=c1ccn([C@@H]2O[C@H](COP(=O)(O)OP(=O)(O)OP(=O)(O)O)[C@@H](O)[C@H]2O)c(=O)[nH]1 [UTP]
- stimulation of La proteolysis by nucleotides (in words) [2]: stimulate but less effectively

Molecule: CCN1C(=O)C=CC1=O [N-ethyl maleimide]
- sensitivity of La to inhibitor [2]: inhibited

Molecule: [Zn+2] [Zn^++]
- stimulation of protease Ci activity by divalent cations [1]: not

Molecule: CCCCCCC1OC(=O)CNC(=O)C(C(C)O)NC(=O)C(CO)NC(=O)C(C(C)CC)NC(=O)C(CC(C)C)N(C)C(=O)C1C (centres unmarked) [globomycin]
- inhibition of protease Ci activity by antibiotics ([1]; concentrations of 5-20 μg per ml): strongly inhibit

Molecule: Nc1ncnc2c1ncn2[C@H]1C[C@H](O)[C@@H](COP(=O)(O)OP(=O)(O)OP(=O)(O)O)O1 [deoxyadenosine triphosphate]
- stimulation of La proteolysis by nucleotides (in words) [2]: stimulate but less effectively

Molecule: Nc1ncnc2c1ncn2[C@@H]1O[C@H](COP(=O)(O)OP(=O)(O)OP(=O)(O)O)[C@@H](O)[C@H]1O [ATP]
- increase of degradation of globin and casein by La ([2]; 3000 µM): 2.5-20 fold
- fold induction at 3000 µM [3]: 4 to 20

Molecule: N=C(N)c1ccc(OCCCCCOc2ccc(C(=N)N)cc2)cc1 [pentamidine]
- inhibition of protease So [4]: about 80%

Molecule: O=C(O)c1cc[c]([Hg+])cc1.[OH-] [p-hydroxymercuribenzoate]
- inhibition of protease Ci activity [1]: sensitive

Molecule: O=S(=O)(F)Cc1ccccc1 [phenylmethyl sulfonyl fluoride]
- sensitivity of La to inhibitor [2]: sensitive
- sensitivity of protease Re to inhibitor [5]: sensitive
- sensitivity of protease So to inhibitor [4]: sensitive

Molecule: [O]=[V]([O-])([O-])[O-] [Vanadate]
- sensitivity of La to inhibitor [2]: sensitive to inhibition

Molecule: O=C(O)CN(CCN(CC(=O)O)CC(=O)O)CC(=O)O [EDTA]
- inhibition of Fa [6]: 60%
- sensitivity of protease Re to inhibitor [5]: sensitive
- inhibition of Mi [7]: about 35%

Molecule: c1cnc2c(c1)ccc1cccnc12 [o-phenanthroline]
- inhibition of Fa [6]: about 35%
- inhibition of protease Ci activity [1]: inhibited
- sensitivity of protease Re to inhibitor ([5]; casein as substrate): sensitive
- inhibition of Mi [7]: about 35%

B1: La: ATP-dependent cytoplasmic E. coli serine protease of peak IV, about 115,000 daltons (protein, UniProt P0A9M0 2-784, looked up)
Lon protease: NPERSERIEIPVLPLRDVVVYPHMVIPLFVGREKSIRCLEAAMDHDKKIMLVAQKEASTDEPGVNDLFTVGTVASILQMLKLPDGTVKVLVEGLQRARISALSDNGEHFSAKAEYLESPTIDEREQEVLVRTAISQFEGYIKLNKKIPPEVLTSLNSIDDPARLADTIAAHMPLKLADKQSVLEMSDVNERLEYLMAMMESEIDLLQVEKRIRNRVKKQMEKSQREYYLNEQMKAIQKELGEMDDAPDENEALKRKIDAAKMPKEAKEKAEAELQKLKMMSPMSAEATVVRGYIDWMVQVPWNARSKVKKDLRQAQEILDTDHYGLERVKDRILEYLAVQSRVNKIKGPILCLVGPPGVGKTSLGQSIAKATGRKYVRMALGGVRDEAEIRGHRRTYIGSMPGKLIQKMAKVGVKNPLFLLDEIDKMSSDMRGDPASALLEVLDPEQNVAFSDHYLEVDYDLSDVMFVATSNSMNIPAPLLDRMEVIRLSGYTEDEKLNIAKRHLLPKQIERNALKKGELTVDDSAIIGIIRYYTREAGVRGLEREISKLCRKAVKQLLLDKSLKHIEINGDNLHDYLGVQRFDYGRADNENRVGQVTGLAWTEVGGDLLTIETACVPGKGKLTYTGSLGEVMQESIQAALTVVRARAEKLGINPDFYEKRDIHVHVPEGATPKDGPSAGIAMCTALVSCLTGNPVRADVAMTGEITLRGQVLPIGGLKEKLLAAHRGGIKTVLIPFENKRDLEEIPDNVIADLDIHPVKRIEEVLTLALQNEPSGMQVVTAK
- degradation of casein [8]: capable of degrading
- degradation of globin [9]: capable of degrading

B2: Do: E. coli serine protease of about 520,000 daltons, degrades globin and casein (protein, UniProt P0C0V0 27-474, looked up)
Periplasmic serine …: AETSSATTAQQMPSLAPMLEKVMPSVVSINVEGSTTVNTPRMPRNFQQFFGDDSPFCQEGSPFQSSPFCQGGQGGNGGGQQQKFMALGSGVIIDADKGYVVTNNHVVDNATVIKVQLSDGRKFDAKMVGKDPRSDIALIQIQNPKNLTAIKMADSDALRVGDYTVAIGNPFGLGETVTSGIVSALGRSGLNAENYENFIQTDAAINRGNSGGALVNLNGELIGINTAILAPDGGNIGIGFAIPSNMVKNLTSQMVEYGQVKRGELGIMGTELNSELAKAMKVDAQRGAFVSQVLPNSSAAKAGIKAGDVITSLNGKPISSFAALRAQVGTMPVGSKLTLGLLRDGKQVNVNLELQQSSQNQVDSSSIFNGIEGAEMSNKGKDQGVVVNNVKTGTPAAQIGLKKGDVIIGANQQAVKNIAELRKVLDSKPSVLALNIQRGDSTIYLLMQ
- degradation of casein [8]: hydrolyze
- degradation of globin [9]: hydrolyze
